According to patent publication US9493430B2, “Biaryl- or heterocyclic biaryl-substituted cyclohexene derivative compounds as CETP inhibitors” (CHONG KUN DANG PHARMACEUTICAL CORP., priority 2013, dated 2016):

What was measured:
patients [1] = conditions: patients administered with Anacetrapib; cited from earlier work
[2] = test system: human adrenal cortical tumor cells; conditions: cited from earlier work
[3] = test system: H295R cell line (human adrenal cortical tumor cells); type: cell-based; conditions: 24 hours, 100 nM of torcetrapib, 1 μM of test compounds
Description: Evaluation of the Ability of CETP Inhibitor to Secrete Blood Pressure-Hormone
Based on this, the secretion of blood pressure-increasing hormones from human adrenal cortical tumor cells was evaluated. The cell line H295R was purchased from ATCC (CRL-2128) and cultured in DMEM/F-12 medium (1% ITS, 2.5% Nu-serum). The H295R cell line was dispensed into a 24-well plate at a cell density of 1×10^5/well, and stabilized for 24 hours, after which the cells were starved for 24 hours using serum-free DMEM/F-12. Then, the cells were treated with each of 100 nM of torcetrapib and 1 μM of test compounds 554, 557, 574, 584, 586, 593, 618, 643, 650, 661, 681 and 695. At 24 hours after treatment with the drug or the compound, the supernatant was taken and stored at −20° C. The supernatant stored at −20° C. was thawed, and the amounts of aldosterone and cortisol secreted from the cells were measured using an aldosterone EIA kit (Cayman-10004377) and cortisol EIA kit (Cayman-500360).
2. Statistical Processing
(§1) All test results were expressed as Mean±SEM, and to evaluate the effect of each test group, each test group was compared with the control group using one-way ANOVA test (Dunnett's test, p<0.001).

patients [4] = conditions: cited from earlier work
patients [5] = conditions: human, in vivo; cited from earlier work
patients [6] = conditions: human, in vivo; cited from earlier work; remark: listed apart in the source
golden Syrian hamsters = assay: Test for anti-hyperlipidemic effect in hamsters (in vivo); conditions: Mesocricetus auratus, po, 3 mg/kg orally for 5 days, blood 4 hours after final administration, vs control; for inhibition in vivo at 3 mg/kg: read-out: Decrease in LDL-c (%); for change in vivo at 3 mg/kg: read-out: Increase in HDL-c (%)
From the text: Test for Anti-Hyperlipidemic Effect in Hamsters (In Vivo)
In this test, 8-week-old male golden Syrian hamsters were used. The breeding room was maintained at constant temperature and constant humidity and a 12-hr light/12-hr dark cycle. The animals were allowed access to feed and water ad libitum.
2. Anti-Hyperlipidemic Test in Hamsters
The test animals were acclimated for 1 week before use in the test. The test animals were divided according to body weight into several groups, each consisting of 5-8 animals, and were then administered orally with a dose of 3 mg/kg. A solvent control and a CETP inhibitor were dissolved in imwitor 742: tween 80 (1:1) and administered orally for 5 days, and at 4 hours after the final administration, blood was collected from the heart. The collected blood was centrifuged at 3000 rpm for 15 minutes, and the separated serum was measured for HDL-Cholesterol (Biosystem) and LDL-Cholesterol (Biosystem) using a biochemical analysis instrument (ILab 300 plus, Instrumentation Laboratory).
(§2) 3. Statistical Processing
as §1

CETP = CETP (Homo sapiens (Human), UniProt P11597); assay: Test for inhibition of cholesteryl ester transfer (in vitro); type: biochemical; conditions: human plasma as CETP source, LDL from healthy persons as acceptor, rHDL-agarose donor, 37° C.
From the text: Test for Inhibition of Cholesteryl Ester Transfer (In Vitro)
1. Construction of Cholesteryl Ester Donor
To construct a cholesteryl ester donor to be used in the test, radiolabeled recombinant HDL containing […] (GE healthcare, TRK886, 3.5 μCi/mg of apoA-1) and apoA-1 was synthesized. Then, rHDL-agarose having the recombinant HDL immobilized thereon by CNBr-activated Sepharose 4B (Amersham Biosciences, Sweden) resin was used in the test.
2. Cholesteryl Ester Transfer Test
As a protein source for cholesteryl ester transfer, plasma from healthy persons was used, and as a cholesteryl ester receptor, LDL from healthy persons was used. Samples were treated with each test compound to final concentrations of 16, 80, 400, 2000 and 10000 nM and analyzed in duplicate. For the cholesteryl ester transfer test, 20 μl of plasma, 50 μl of LDL (0.25 mg/ml) and 50 μl of rHDL-agarose (0.25 mg/ml) were added, and a solution containing a test compound was added, followed by reaction at 37° C. Then, centrifugation was performed at 4° C. for 3 minutes to stop the reaction, and 150 μl of the supernatant was taken and transferred to a 96-well plate for radioactivity measurement, and the radioactivity of the plate was measured with a beta-ray detector.
as §2
The ratio of [^3H]-cholesteryl oleate from HDL to LDL was calculated and used as a result value, and from the result value, IC50 value was calculated using GraphPad Prism 5.0.

CETP, sequence (P11597 18-493): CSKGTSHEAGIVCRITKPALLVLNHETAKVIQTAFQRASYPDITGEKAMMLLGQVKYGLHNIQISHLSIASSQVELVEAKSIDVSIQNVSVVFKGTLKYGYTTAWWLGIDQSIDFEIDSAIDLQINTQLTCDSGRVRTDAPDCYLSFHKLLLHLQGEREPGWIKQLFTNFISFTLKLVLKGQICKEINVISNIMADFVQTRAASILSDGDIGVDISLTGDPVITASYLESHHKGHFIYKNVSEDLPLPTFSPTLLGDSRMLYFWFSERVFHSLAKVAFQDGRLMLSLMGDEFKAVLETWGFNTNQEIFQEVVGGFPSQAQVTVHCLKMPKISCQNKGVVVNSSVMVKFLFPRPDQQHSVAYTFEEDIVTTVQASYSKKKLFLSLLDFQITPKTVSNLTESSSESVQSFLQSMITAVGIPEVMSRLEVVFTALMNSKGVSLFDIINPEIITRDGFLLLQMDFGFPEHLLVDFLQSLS

Q: With COc1cc(F)c(C(C)C)cc1-c1ccc(C(F)(F)F)cc1CN1C(=O)O[C@H](c2cc(C(F)(F)F)cc(C(F)(F)F)c2)[C@@H]1C [Anacetrapib] as the molecule, how does the HDL-c level increase (patients [1]) read?
A: 138%

Q: What about the LDL-c level decrease (patients [1]) of the same molecule?
A: 40%

Q: Which secretion of aldosterone [2] does the source give for CCOC(=O)N1c2ccc(C(F)(F)F)cc2[C@@H](N(Cc2cc(C(F)(F)F)cc(C(F)(F)F)c2)C(=O)OC)C[C@H]1CC [torcetrapib] here?
A: increased the secretion of aldosterone and cortisol

Q: And the secretion of cortisol [2]?
A: increased the secretion of aldosterone and cortisol

Q: And the secretion of aldosterone [3]?
A: increased the secretion of the two hormones

Q: And the secretion of cortisol [3]?
A: increased the secretion of the two hormones

Q: And the “morbidity rate and mortality rate” value (patients [4]; combination of torcetrapib and atorvastatin compared to atorvastatin alone)?
A: increase

Q: What about the blood pressure (patients [4]; human, in vivo) of the same molecule?
A: causes an increase in blood pressure

Q: And the mortality rate (patients [4]; human, in vivo)?
A: an increase in mortality rate

Q: Which results are given for CCC(CC)CC1(C(=O)Nc2ccccc2SC(=O)C(C)C)CCCCC1 [Dalcetrapib]?
A: effects (efficacy) (patients [5]): insufficient effects; side effects (patients [5]): does not have the side effects of Torcetrapib

Q: Which results are given for Cc1cc(C)c2c(c1)[C@@H](N(Cc1cc(C(F)(F)F)cc(C(F)(F)F)c1)c1nnn(C)n1)CCCN2C[C@H]1CC[C@H](C(=O)O)CC1 [Evacetrapib]?
A: HDL-c levels (patients [6]): increases HDL-c levels in a dose-dependent manner; side effects such as blood pressure elevation (patients [6]): does not cause side effects such blood pressure elevation

Q: Which inhibition in vivo at 3 mg/kg (golden Syrian hamsters) does the source give for COc1ccc(-c2ccc(C(=O)O)cc2Cl)cc1C1=C(CN2C(=O)O[C@H](c3cc(C(F)(F)F)cc(C(F)(F)F)c3)[C@@H]2C)CC(C)(C)CC1 [Compound 643, 3′-(2-(((4S,5R)-5-(3,5-bis(trifluoromethyl)phenyl)-4-methyl-2-oxooxazolidin-3-yl)methyl)-4,4-dimethylcyclohex-1-enyl)-2-chloro-4′-methoxybiphenyl-4-carboxylic acid] here?
A: 17%

Q: And the change in vivo at 3 mg/kg (golden Syrian hamsters)?
A: 68%

Q: What about the IC50 (CETP) of the same molecule?
A: 7.3 nM

Q: With COc1ncc(-c2ccc(C(=O)O)cc2Cl)cc1C1=C(CN2C(=O)O[C@H](c3cc(C(F)(F)F)cc(C(F)(F)F)c3)[C@@H]2C)CC(C)(C)CC1 [Compound 584, 4-(3-(2-(((4S,5R)-5-(3,5-bis(trifluoromethyl)phenyl)-4-methyl-2-oxooxazolidin-3-yl)methyl)-4,4-dimethylcyclohex-1-enyl)-2-methoxypyridin-5-yl)-3-chlorobenzoic acid] as the molecule, how does the inhibition in vivo at 3 mg/kg (golden Syrian hamsters) read?
A: 40%

Q: And the change in vivo at 3 mg/kg (golden Syrian hamsters)?
A: 46%

Q: What about the IC50 (CETP) of the same molecule?
A: 5.3 nM

Q: For COc1ncc(-c2ccc(C(=O)O)cc2F)cc1C1=C(CN2C(=O)O[C@H](c3cc(C(F)(F)F)cc(C(F)(F)F)c3)[C@@H]2C)CC(C)(C)CC1 [Compound 586, 4-(3-(2-(((4S,5R)-5-(3,5-bis(trifluoromethyl)phenyl)-4-methyl-2-oxooxazolidin-3-yl)methyl)-4,4-dimethylcyclohex-1-enyl)-2-methoxypyridin-5-yl)-3-fluorobenzoic acid], which inhibition in vivo at 3 mg/kg (golden Syrian hamsters) is on record?
A: 34%

Q: What about the change in vivo at 3 mg/kg (golden Syrian hamsters) of the same molecule?
A: 37%

Q: What about the IC50 (CETP) of the same molecule?
A: 13 nM

Q: Which results are given for C[C@H]1[C@@H](c2cc(C(F)(F)F)cc(C(F)(F)F)c2)OC(=O)N1CC1=C(c2cc(-c3ccc(C(=O)O)cc3C(F)(F)F)ccc2F)CCC(C)(C)C1 [Compound 695, 3′-(2-(((4S,5R)-5-(3,5-bis(trifluoromethyl)phenyl)-4-methyl-2-oxooxazolidin-3-yl)methyl)-4,4-dimethylcyclohex-1-enyl)-4′-fluoro-2-(trifluoromethyl)biphenyl-4-carboxylic acid]?
A: inhibition in vivo at 3 mg/kg (golden Syrian hamsters): 35%; change in vivo at 3 mg/kg (golden Syrian hamsters): 71%; IC50 (CETP): 6.4 nM
